Residues, ends and D or L forms follow the SMILES beside them. No end group written: not given here. *: point of attachment. Palmitoyl = CCCCCCCCCCCCCCCC(=O)*
Legend:
Bel-7402 tumor cells = test: Binding of FITC labeled polypeptides to integrin-expressing tumor cells by flow cytometry; parameters: unit not given here; details: FITC labeled polypeptide, dosage 1 μg/μl, Bel-7402 cells, 25 min
Experimental: Analysis of the binding of polypeptide s and integrin by flow cytometry. Bel-7402 tumor cells were used, which can express integrin. The cells were cultured in a 24-well plate, and the cells were collected and washed with ice-cold PBS twice. Before labeling, the cells were suspended in PBS +1% BSA, maintained for 30 min, added with 1 μl FITC labeled polypeptide s (P1, P2, P3, P4, P5, P6, P7, P8, P9, P10, P11, P12, P13, P14, P15, P16, RGD and ES-2) for reaction for 25 min. After labeling, the cells were collected and washed twice with PBS, suspended again in 400 μl PBS and analysis was conducted with a flow cytometry (Becton Dickinson, USA). FITC fluorescence was determined at FL1 channel The cells with FITC feature would be further analyzed.

B16F10 melanoma cells = test: In vivo anti-tumor test, B16F10 melanoma; details: B16F10 in C57BL/6 mice, 5 mg/kg/d contralateral subcutaneous injection, 9th day
Experimental: The cultured B16F10 melanoma cells were treated with 0.05% trypsin, centrifuged at 1000 rpm for 5 min, suspended again in PBS, inoculated subcutaneously with 0.1 ml of 5×10^5 cells at the body sides of C57BL/6 mice (6-8 weeks). When the average tumor size reached 200 mm3-300 mm3, the mice were randomly divided into two groups, 7 mice for each group, of which, one group of mice were treated with RGD-ED, and the other group were treated with ED not containing RGD, with the doses of 5 mg/kg/d for the two groups, and the control group of mice were subject to PBS injection. The treatment method was contralateral subcutaneous injection of the inoculated tumors.

[1] = Half-life of polypeptides in plasma at 37° C. (HPLC); type: in vitro ADME; details: 800 μg/ml, 20 μl injected on HPLC
Experimental: Survey on the half-life of polypeptides in plasma at 37° C. after modification. Preparation of blood drug samples: after crude drug (volume V) (800 ug/ml) +1V plasma were mixed and diluted with 2V water evenly, incubated for 0, 5, 30 min at 37° C. respectively, immediately heated at 80° C. for 30 min; the negative control: after 1V plasma were diluted and mixed with 3 V water evenly, and heated for 30 min at 80° C. The positive control group: after 1V crude drug (800 ug/ml) were diluted and mixed evenly with 3V water, heated for 30 min at 80° C. The samples were the modified products, […] at 14000 rpm for 10 min. The supernatant was fetched for HPLC analysis with the injection size of 20 ul.

CAMs = test: CAM analysis of anti-angiogenic activity; type: in vivo, chick
Experimental: To detect the in vivo anti-angiogenic activity, CAM analysis was carried out. All the tests were carried out on the ultra-clean platform under sterile conditions. The 6-day disinfected chick embryos were cultured under the condition of 37° C., 90% humidity. After 2 days, the top of each egg was punched and the reagents were dripped into the sterile Whatman filter paper, then put on the CAMs vascular clustered area, cultivated for 48 hours, and observed the chick embryos and CAMs and took pictures.

[2] = system: human liver cancer SGC7901; test: In vivo anti-tumor test, SGC7901 xenograft; details: SGC7901 in nude mice, 3 mg/kg/d contralateral subcutaneous injection, 10th day
Experimental: (§1) The cultured human liver cancer SGC7901 was treated with 0.05% trypsin, centrifuged at 1000 rpm for 5 min, suspended again in PBS, inoculated subcutaneously with 0.1 ml of 5×10^5 cells on the body sides of nude mice (6-8 weeks). When the average tumor size reached 100 mm^3-200 mm^3, the mice were randomly divided into three groups, 7 mice for each group, of which, one group of mice were treated with RGD-ED, one group were treated with RGD-ED modified with liposome, and the third group were treated with RGD-ED modified with polyethylene glycol, with the doses of 3 mg/kg/d for the three groups, and the control group of mice were subject to PBS injection. The treatment method was contralateral subcutaneous injection of the inoculated tumors.
as §1, with “with liposome-modified RGD-ED,” for “with RGD-ED modified with liposome,”, “with” for “with RGD-ED modified with”, “polyethylene glycol-modified RGD-ED,” for “polyethylene glycol,”, “injection. […]” for “injection. The treatment method was contralateral subcutaneous injection of the inoculated tumors.”

NIH 3T3 cells = test: Cell proliferation analysis on non-endothelial cells; type: cell-based; details: non-endothelial NIH 3T3 cells, 48 h
Experimental: The culture of BCE cells and NIH 3T3 cells, method: the culture solution DMEM contained 10% inactivated calf serum (BCS), 1% antibiotics and 3 ng/ml bFGF. Cell proliferation analysis method is as follows: washed the cells with PBS, digested with trypsin, added with culture solution suspension cells and centrifuged and collected cells, and regulated the cell concentrations to 25,000 cells/ml. The cells were moved to 6-well plates (0.5 ml/well) and cultured for 24 h. Replaced the culture medium as 1 ml DMEM, 5% BCS, 1% antibiotics, 1 ng/ml bFGF. Different doses of samples were added to each hole, and further cultured for 48 h, digested the cells with trypsase, re-suspended in PBS, fixed with 70% ice-cold ethanol and stained with 7-AAD, and then conducted analysis with flow cytometry.

| Molecule | Binding Value (Bel-7402 tumor cells) | further results |
| --- | --- | --- |
| IVRRADRAAVPRGD [P4] | 60.13 | – |
| Ile-Val-Arg-Arg-Ala-Asp-Arg-Ala-Ala-Val-Pro-linker-Ala-Cys-Asp-Cys-Arg-Gly-Asp-Cys-Phe-Cys [P11] | 60.20 | – |
| Arg-Gly-Asp-linker-Ile-Val-Arg-Arg-Ala-Asp-Arg-Ala-Ala-Val-Pro-linker-Arg-Gly-Asp [P6] | 60.27 | – |
| Arg-Gly-Asp-linker-Ile-Val-Arg-Arg-Ala-Asp-Arg-Ala-Ala-Val-Pro-Arg-Gly-Asp [P8] | 58.30 | – |
| Ile-Val-Arg-Arg-Ala-Asp-Arg-Ala-Ala-Val-Pro-linker-Arg-Gly-Asp [P3] | 58.96 | – |
| RGDIVRRADRAAVPRGD [P5] | 59.40 | – |
| ACDCRGDCFCIVRRADRAAVPACDCRGDCFC (cysteine pairing not given here) [P13] | 59.25 | – |
| Ala-Cys-Asp-Cys-Arg-Gly-Asp-Cys-Phe-Cys-Ile-Val-Arg-Arg-Ala-Asp-Arg-Ala-Ala-Val-Pro-linker-Ala-Cys-Asp-Cys-Arg-Gly-Asp-Cys-Phe-Cys [P15] | 64.11 | – |
| IVRRADRAAVP [ED, reference compound] | 18.35 | tumor inhibition rate (B16F10 melanoma cells): 28% |
| RGDGGGGIVRRADRAAVP [P1] | 63.21 | half-life [1]: 7 min |
| IVRRADRAAVPACDCRGDCFC (cysteine pairing not given here) [P12] | 67.28 | – |
| Ala-Cys-Asp-Cys-Arg-Gly-Asp-Cys-Phe-Cys-linker-Ile-Val-Arg-Arg-Ala-Asp-Arg-Ala-Ala-Val-Pro-linker-Ala-Cys-Asp-Cys-Arg-Gly-Asp-Cys-Phe-Cys [P16] | 66.12 | – |
| Arg-Gly-Asp-Ile-Val-Arg-Arg-Ala-Asp-Arg-Ala-Ala-Val-Pro-linker-Arg-Gly-Asp [P7] | 60.25 | – |
| Ala-Cys-Asp-Cys-Arg-Gly-Asp-Cys-Phe-Cys-linker-Ile-Val-Arg-Arg-Ala-Asp-Arg-Ala-Ala-Val-Pro [P9] | 66.04 | – |
| ACDCRGDCFCIVRRADRAAVP (cysteine pairing not given here) [P10] | 63.28 | – |
| arginine-glycine-aspartic acid [RGD, reference compound] | 59.45 | – |
| designed angiogenesis inhibitor: ED polypeptide joined to a sequence containing Arg-Gly-Asp, expressed recombinantly in E. coli; exact sequence not stated [RGD-ED] | – | inhibition of neovascularization and angiogenesis in CAM (CAMs; 0.05 μg, 0.1 μg and 0.2 μg, 48 hours): significantly inhibit; chick embryo death in CAM test (CAMs; 0.5 μg): cause chick embryo death; inhibition of angiogenesis in CAM (CAMs; 0.5 μg, 48 hours): completely inhibit; tumor inhibition rate [2]: 68%; tumor inhibition rate (B16F10 melanoma cells): 58%; inhibitory effect on NIH 3T3 cell proliferation (NIH 3T3 cells): no inhibitory effect |
| Ala-Cys-Asp-Cys-Arg-Gly-Asp-Cys-Phe-Cys-linker-Ile-Val-Arg-Arg-Ala-Asp-Arg-Ala-Ala-Val-Pro-Ala-Cys-Asp-Cys-Arg-Gly-Asp-Cys-Phe-Cys [P14] | 58.32 | – |
| CCCCCCCCCCCCCCCC(=O)N[C@@H](CCCNC(=N)N)C(=O)NCC(=O)N[C@@H](CC(=O)O)C(=O)NCC(=O)NCC(=O)NCC(=O)NCC(=O)N[C@H](C(=O)N[C@H](C(=O)N[C@@H](CCCNC(=N)N)C(=O)N[C@@H](CCCNC(=N)N)C(=O)N[C@@H](C)C(=O)N[C@@H](CC(=O)O)C(=O)N[C@@H](CCCNC(=N)N)C(=O)N[C@@H](C)C(=O)N[C@@H](C)C(=O)N[C@H](C(=O)N1CCC[C@H]1C(=O)O)C(C)C)C(C)C)[C@@H](C)CC [Palmitic acid-modified substance] (Palmitoyl-RGDGGGGIVRRADRAAVP-OH; C-terminus assumed) | – | half-life [1]: 12 min |
| RGDIVRRADRAAVP [P2] | 62.15 | – |

Reference: patent US20100305303A1, “INHIBITING AGENT FOR INHIBITION OF ANGIOGENESIS, A METHOD FOR PREPARING THE AGENT, A METHOD FOR MODIFYING THE AGENT AND ITS USE FOR MANUFACTURING A MEDICAMENT FOR TREATING TUMOR” (priority 2007, published 2010)
